Measured values reported in patent publication US8076352B2, “Administration of carboline derivatives useful in the treatment of cancer and other diseases” (PTC Therapeutics, Inc., priority 2004, dated 2011).

What follows are compounds tested on hypoxia-inducible endogenous VEGF expression in HeLa cells (assay: Hypoxia-inducible endogenous VEGF expression, VEGF ELISA of conditioned media (dose-response EC50)). Conditions: HeLa cells under hypoxic conditions.
Type: cell-based
Experimental: The ability of the compounds of the invention to modulate hypoxia-inducible endogenous VEGF expression may be analyzed as follows. VEGF protein levels may be monitored by an ELISA assay (R&D Systems). Briefly, HeLa cells may be cultured for 24-48 hours under hypoxic conditions (1% O2, 5% CO2, balanced with nitrogen) in the presence or absence of a compound of the invention. The conditioned media may then be assayed by ELISA, and the concentration of VEGF calculated from the standard ELISA curve of each assay.
A dose-response analysis may be performed using the ELISA assay and conditions described above. The conditions for the dose-response ELISA are analogous to those described above. A series of, e.g., seven different concentrations may be analyzed. […] Dose-response curves may be plotted using percentage inhibition versus concentration of the compound, and EC50 and CC50 values may be generated for each compound with the maximal inhibition set as 100% and the minimal inhibition as 0%.

Row | SMILES | EC50 [nM]
1 | CS(=O)(=O)c1ccc(C2c3[nH]c4ccc(Cl)cc4c3CCN2C(=O)N2CCOCC2)cc1 (stereo not drawn) [Compound 361] | 8 to 40
2 | CCOC(=O)N1CCc2c([nH]c3ccc(Br)cc23)C1c1ccc([N+](=O)O)cc1 (stereo not drawn) [Compound 59] | 8 to 40

Same assay, conditions: HeLa cells, hypoxic conditions (1% O2)

Row | SMILES | EC50 [nM]
3 | CN(C)CCCOc1ccc(C2c3[nH]c4ccc(Cl)cc4c3CCN2C(=O)Oc2ccc(Br)cc2)cc1 (stereo not drawn) [Compound 468] | 8 to 40
4 | O=C(Oc1ccc(F)cc1)N1CCc2c([nH]c3ccc(Br)cc23)C1c1ccc(C(F)(F)F)cc1 (stereo not drawn) [Compound 426] | < 8

Same assay, conditions: Homo sapiens, HeLa cells under hypoxic conditions

Row | SMILES | EC50 [nM]
5 | CCOC(=O)N1CCc2[nH]c3ccc(Br)cc3c2C1 [Compound 243] | > 1000
6 | CCOC(=O)N1Cc2c([nH]c3ccc(Cl)cc23)C(c2ccccc2)C1 (stereo not drawn) [Compound 250] | > 1000
7 | Brc1cccc(C2NCCc3c2[nH]c2ccc(Br)cc32)c1 (stereo not drawn) [Compound 213] | 200 to 1000
8 | CC(=O)N1CCc2c([nH]c3ccc(Br)cc23)C1c1ccccc1 (stereo not drawn) [Compound 152] | 40 to 200
9 | COc1ccc(C2NC(C(=O)O)Cc3c2[nH]c2ccc(Br)cc32)cc1 (stereo not drawn) [Compound 300] | > 1000
10 | COc1ccc(C2c3[nH]c4ccc(Cl)cc4c3CCN2C(=O)N2CCCC2)cc1 (stereo not drawn) [Compound 333] | 200 to 1000
11 | Clc1ccc(C2NCCc3c2[nH]c2ccc(Br)cc32)cc1 (stereo not drawn) [Compound 181] | 200 to 1000
12 | CCOC(=O)N1CCc2c([nH]c3ccc(Cl)cc23)C1c1cccc(O)c1 (stereo not drawn) [Compound 165] | 40 to 200
13 | CC(C)COC(=O)N1CCc2c([nH]c3ccc(Cl)cc23)C1c1ccccc1 (stereo not drawn) [Compound 122] | 8 to 40
14 | COc1ccc(C2NC(C(=O)N3CCOCC3)Cc3c2[nH]c2ccc(Br)cc32)cc1 (stereo not drawn) [Compound 247] | > 1000
15 | Clc1ccc2[nH]c3c(c2c1)CCNC3c1ccccc1 (stereo not drawn) [Compound 216] | 200 to 1000
16 | COc1ccc(C2c3[nH]c4ccc(Cl)cc4c3CCN2C(=O)Cc2cccs2)cc1 (stereo not drawn) [Compound 374] | 40 to 200
17 | COc1ccc(C2c3[nH]c4ccc(Br)cc4c3CCN2O)cc1 (stereo not drawn) [Compound 110] | 8 to 40
18 | Fc1ccc2[nH]c3c(c2c1)CCNC3c1ccc(Cl)cc1 (stereo not drawn) [Compound 254] | > 1000
19 | Clc1ccc2[nH]c3c(c2c1)CCN(Cc1ccccc1)C3c1nccs1 (stereo not drawn) [Compound 262] | > 1000
20 | COCC(=O)N1CCc2c([nH]c3ccc(Br)cc23)C1c1ccc(OC)cc1 (stereo not drawn) [Compound 204] | 200 to 1000
21 | CC(C)OC(=O)N1CCc2c([nH]c3ccc(Cl)cc23)C1c1ccc(C(C)C)cc1 (stereo not drawn) [Compound 24] | < 8
22 | COCCNC(=S)N1CCc2c([nH]c3ccccc23)C1c1ccc(OC)cc1 (stereo not drawn) [Compound 290] | > 1000
23 | CC(C)OC(=O)N1CCc2c([nH]c3ccc(Cl)cc23)C1c1cccc(Cl)c1 (stereo not drawn) [Compound 87] | 8 to 40
24 | COC(=O)N1CCc2c([nH]c3ccc(Cl)cc23)C1c1ccc(C)cc1 (stereo not drawn) [Compound 52] | 8 to 40
25 | CC(=O)N1CCc2c([nH]c3ccc(Br)cc23)C1c1ccc(Cl)cc1 (stereo not drawn) [Compound 50] | 8 to 40
26 | COc1ccc(C2c3[nH]c4ccc(Cl)cc4c3CCN2C(=O)NC2CCCCC2)cc1 (stereo not drawn) [Compound 147] | 40 to 200
27 | CC(C)OC(=O)N1CCc2c([nH]c3ccc(Cl)cc23)C1c1ccc(C(F)(F)F)cc1 (stereo not drawn) [Compound 26] | < 8
28 | CCOC(=O)N1CCc2c([nH]c3ccccc23)C1c1ccc(OC)cc1 (stereo not drawn) [Compound 235] | > 1000
29 | CC(C)NC(=S)N1CCc2c([nH]c3ccc(Br)cc23)C1c1cccc(Cl)c1 (stereo not drawn) [Compound 202] | 200 to 1000
30 | Clc1ccc2[nH]c3c(c2c1)CCN(Cc1ccccc1)C3c1cc2c(cc1Cl)OCO2 (stereo not drawn) [Compound 274] | > 1000

Row | SMILES | EC50 [nM]
31 | Clc1ccc2[nH]c3c(c2c1)CCNC3c1cccnc1 (stereo not drawn) [Compound 319] | > 1000
32 | CCOC(=O)N1CCc2c([nH]c3ccc(Cl)cc23)C1c1ccc(C#N)cc1 (stereo not drawn) [Compound 120] | 8 to 40
33 | CC(C)OC(=O)N1CCc2c([nH]c3ccc(Cl)cc23)C1c1ccccc1F (stereo not drawn) [Compound 105] | 8 to 40
34 | COc1ccc(C2c3[nH]c4ccc(Br)cc4c3CCN2C(C)=O)cc1 (stereo not drawn) [Compound 130] | 40 to 200
35 | CCOC(=O)N1CCc2c([nH]c3ccc(Cl)cc23)C1CC (stereo not drawn) [Compound 240] | > 1000
36 | CC(C)c1ccc(C2NCCc3c2[nH]c2ccc(Br)cc32)cc1 (stereo not drawn) [Compound 112] | 8 to 40
37 | COc1ccc(C2c3[nH]c4ccc(Cl)cc4c3CCN2C(=O)OCC(C)C)cc1 (stereo not drawn) [Compound 30] | < 8
38 | COc1ccc2[nH]c3c(c2c1)CCNC3c1ccc(OCc2ccccc2)cc1 (stereo not drawn) [Compound 285] | > 1000
39 | CCOC(=O)N1CCc2c([nH]c3ccc(Cl)cc23)C1c1ccc(Cl)cc1 (stereo not drawn) [Compound 11] | < 8
40 | CC(=O)N1CCc2c([nH]c3ccc(Br)cc23)C1c1ccc(C(C)C)cc1 (stereo not drawn) [Compound 102] | 8 to 40
41 | CCCOC(=O)N1CCc2c([nH]c3ccc(Cl)cc23)C1c1ccc(C(C)C)cc1 (stereo not drawn) [Compound 13] | < 8
42 | CCOC(=O)N1CCc2c([nH]c3ccc(Cl)cc23)C1c1cccc(CN2CCN(CCCN(C)C)CC2)c1 (stereo not drawn) [Compound 389] | < 8
43 | c1ccc(COc2ccc3[nH]c4c(c3c2)CCNC4c2ccccc2)cc1 (stereo not drawn) [Compound 303] | > 1000
44 | COc1ccc(C2NC(C(=O)N3CCN(C(C)=O)CC3)Cc3c2[nH]c2ccc(Br)cc32)cc1 (stereo not drawn) [Compound 244] | > 1000
45 | COc1ccc(C2c3[nH]c4ccccc4c3CCN2C(=S)Nc2ccc(C)cc2)cc1 (stereo not drawn) [Compound 317] | > 1000
46 | COc1cccc(C2NCCc3c2[nH]c2ccc(Br)cc32)c1O (stereo not drawn) [Compound 377] | > 1000
47 | Oc1ccc(C2NCCc3c2[nH]c2ccc(Cl)cc32)cc1 (stereo not drawn) [Compound 296] | > 1000
48 | COC(=O)N1CCc2c([nH]c3ccc(Cl)cc23)C1c1ccc2c(c1)OCO2 (stereo not drawn) [Compound 133] | 40 to 200
49 | COC(=O)N1CCc2c([nH]c3ccc(Cl)cc23)C1c1ccccc1 (stereo not drawn) [Compound 96] | 8 to 40
50 | CCCOC(=O)N1CCc2c([nH]c3ccc(Cl)cc23)C1c1cccc(OC)c1 (stereo not drawn) [Compound 86] | 8 to 40
51 | CCOC(=O)N1CCc2c([nH]c3ccc(Cl)cc23)C1C1CCCCC1 (stereo not drawn) [Compound 145] | 40 to 200
52 | COc1ccc(C2NCCc3c2[nH]c2ccc(Br)cc32)cc1 (stereo not drawn) [Compound 214] | 200 to 1000
53 | CC(C)OC(=O)N1CCc2c([nH]c3ccc(Cl)cc23)C1c1ccc([N+](=O)[O-])cc1 (stereo not drawn) [Compound 56] | 8 to 40
54 | CCOC(=O)Oc1cccc(C2c3[nH]c4ccc(Cl)cc4c3CCN2C(=O)OCC)c1 (stereo not drawn) [Compound 175] | 200 to 1000
55 | CCOC(=O)N1CCc2c([nH]c3ccc(Cl)cc23)C1c1ccc([N+](=O)[O-])cc1 (stereo not drawn) [#74] | 8 to 40

Same assay, conditions: Homo sapiens, HeLa cells, hypoxic conditions (1% O2)

Row | SMILES | EC50 [nM]
56 | CC(C)(C)OC(=O)N[C@@H](Cc1ccccc1)C(=O)Oc1ccc(C2c3[nH]c4ccc(Cl)cc4c3CCN2C(=O)OC(C)(C)C)cc1 (stereo partly drawn) [Compound 451] | 8 to 40
57 | CCOC(=O)N1CCc2c([nH]c3ccc(Cl)cc23)C1c1ccc(C(=O)N2CCCN(C)CC2)cc1 (stereo not drawn) [Compound 514] | 40 to 200
58 | O=C(Oc1ccc(F)cc1)N1CCc2c([nH]c3ccc(Cl)cc23)C1c1ccc(OCCCCCCn2ccnc2)cc1 (stereo not drawn) [Compound 780] | < 8
59 | CCOC(=O)N1CCc2c([nH]c3ccc(Br)cc23)C1c1ccc(C(=O)NC)cc1 (stereo not drawn) [Compound 480] | 40 to 200
60 | Cc1ccc(OC(=O)N2CCc3c([nH]c4ccc(Cl)cc34)C2c2ccc(OCCCN(C)C)cc2)cc1 (stereo not drawn) [Compound 502] | 40 to 200
61 | O=C(Oc1ccc(F)cc1)Oc1ccc(C2c3[nH]c4ccc(Cl)cc4c3CCN2C(=O)Oc2ccc(F)cc2)cc1 (stereo not drawn) [Compound 576] | 40 to 200
62 | COCCCNCCCCCCOc1ccc(C2c3[nH]c4ccc(Cl)cc4c3CCN2C(=O)Oc2ccc(Cl)cc2)cc1 (stereo not drawn) [Compound 785] | < 8
63 | O=C(Oc1ccc(F)cc1)N1CCc2c([nH]c3ccc(Cl)cc23)C1c1ccc(OCC(O)CN2CCOCC2)cc1 (stereo not drawn) [Compound 638] | < 8
64 | COc1ccc(OC(=O)N2CCc3c([nH]c4ccc(Cl)cc34)C2c2cnc(N(C)C)nc2)cc1 (stereo not drawn) [Compound 445] | 8 to 40
65 | CCOC(=O)N1CCc2c([nH]c3ccc(Br)cc23)C1c1ccc(C(=O)NCCOC)cc1 (stereo not drawn) [Compound 438] | < 8
66 | O=C(Oc1ccc(Cl)cc1)N1CCc2c([nH]c3ccc(Cl)cc23)C1c1ccc(OCCCCN2CCCCC2)cc1 (stereo not drawn) [Compound 703] | 8 to 40
67 | CCOC(=O)N1CCc2c([nH]c3ccc(Cl)cc23)C1CCc1ccccc1 (stereo not drawn) [Compound 511] | 40 to 200
68 | CCOC(=O)N1CCc2c([nH]c3ccc(Cl)cc23)C1c1ccc(C(=O)NCC2CCCO2)cc1 (stereo not drawn) [Compound 494] | 40 to 200
69 | O=C(Oc1ccc(F)cc1)N1CCc2c([nH]c3ccc(Cl)cc23)C1c1ccc(OCCCCn2cncn2)cc1 (stereo not drawn) [Compound 743] | < 8

Same assay, conditions: Homo sapiens, HeLa cells, hypoxic conditions (1% O2, 5% CO2)

Row | SMILES | EC50 [nM]
70 | O=C(Oc1ccc(Cl)cc1)N1CCc2c([nH]c3ccc(Cl)cc23)C1c1ccc(OCC(O)CN2CCN(CCO)CC2)cc1 (stereo not drawn) [Compound 960] | 8 to 40
71 | O=C(Oc1ccc(Cl)cc1)N1CCc2c([nH]c3ccc(Cl)cc23)C1c1ccc(OCC(O)CN2CCOCC2)cc1 (stereo not drawn) [Compound 904] | < 8
72 | Cc1ccc(OC(=O)N2CCc3c([nH]c4ccc(Cl)cc34)C2c2ccc(OCCCn3cncn3)cc2)cc1 (stereo not drawn) [Compound 882] | < 8
73 | COCCN(C)CCCOc1ccc(C2c3[nH]c4ccc(Cl)cc4c3CCN2C(=O)Oc2ccc(F)cc2)cc1 (stereo not drawn) [Compound 992] | 40 to 200
74 | COCCN(CCCOc1ccc(C2c3[nH]c4ccc(Cl)cc4c3CCN2C(=O)Oc2ccc(F)cc2)cc1)CCOC (stereo not drawn) [Compound 990] | < 8
75 | COCCN(C)CC(O)COc1ccc(C2c3[nH]c4ccc(Cl)cc4c3CCN2C(=O)Oc2ccc(F)cc2)cc1 (stereo not drawn) [Compound 936] | < 8
